Holding throughout (experiment): Kinase profiling in a biochemical assay panel (mobility shift assays and ELISA), %-inhibition at 1 μM; selectivity entropy
The target in experiment [1] is T1, panel of more than 300 wild-type and mutant kinases (313 kinase panel) (Homo sapiens, UniProt Q9UF33).
T1 sequence (Q9UF33 23-1036): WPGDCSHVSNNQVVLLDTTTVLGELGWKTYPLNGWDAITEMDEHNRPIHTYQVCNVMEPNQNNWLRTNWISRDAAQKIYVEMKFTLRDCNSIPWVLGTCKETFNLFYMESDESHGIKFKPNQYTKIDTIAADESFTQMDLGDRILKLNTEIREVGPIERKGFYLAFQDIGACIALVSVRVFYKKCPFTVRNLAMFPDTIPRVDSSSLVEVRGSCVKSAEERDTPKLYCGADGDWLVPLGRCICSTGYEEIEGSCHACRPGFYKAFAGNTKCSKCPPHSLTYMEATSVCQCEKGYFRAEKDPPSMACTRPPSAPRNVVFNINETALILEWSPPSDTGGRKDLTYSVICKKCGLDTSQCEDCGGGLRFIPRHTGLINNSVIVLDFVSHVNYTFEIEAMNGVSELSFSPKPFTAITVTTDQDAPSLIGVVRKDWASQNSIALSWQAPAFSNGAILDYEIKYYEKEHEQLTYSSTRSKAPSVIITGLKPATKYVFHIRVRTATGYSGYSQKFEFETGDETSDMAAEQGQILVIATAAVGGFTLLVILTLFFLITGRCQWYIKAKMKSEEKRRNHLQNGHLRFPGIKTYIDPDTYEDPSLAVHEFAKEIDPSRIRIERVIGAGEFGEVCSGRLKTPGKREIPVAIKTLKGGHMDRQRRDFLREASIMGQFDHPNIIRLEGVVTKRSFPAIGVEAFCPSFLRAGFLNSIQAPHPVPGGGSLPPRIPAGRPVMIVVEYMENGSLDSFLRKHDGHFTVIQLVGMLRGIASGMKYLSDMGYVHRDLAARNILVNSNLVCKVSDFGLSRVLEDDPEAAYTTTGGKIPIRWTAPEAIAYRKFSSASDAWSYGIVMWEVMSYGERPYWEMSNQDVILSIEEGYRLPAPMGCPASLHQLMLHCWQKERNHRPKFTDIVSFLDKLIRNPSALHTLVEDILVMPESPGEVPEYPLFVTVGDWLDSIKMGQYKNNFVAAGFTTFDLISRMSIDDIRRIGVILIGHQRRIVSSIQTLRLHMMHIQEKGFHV

In experiment [2] the target is panel of more than 300 wild-type and mutant kinases (313 kinase panel) (Homo sapiens, UniProt P17948). To be noted: kinase FLT1; compound at 1 μM.
Experiment [3] has as its target panel of more than 300 wild-type and mutant kinases (313 kinase panel) (Homo sapiens, UniProt P08581). To be noted: kinase MET; compound at 1 μM.
The target of experiment [4] is panel of more than 300 wild-type and mutant kinases (313 kinase panel) (Homo sapiens, UniProt Q9UM73, F1174L). To be noted: kinase ALK(F1174L); 1 μM compound.
In experiment [5] the target is T2, panel of more than 300 wild-type and mutant kinases (313 kinase panel) (Homo sapiens, UniProt P36888).
T2 sequence (P36888 27-993): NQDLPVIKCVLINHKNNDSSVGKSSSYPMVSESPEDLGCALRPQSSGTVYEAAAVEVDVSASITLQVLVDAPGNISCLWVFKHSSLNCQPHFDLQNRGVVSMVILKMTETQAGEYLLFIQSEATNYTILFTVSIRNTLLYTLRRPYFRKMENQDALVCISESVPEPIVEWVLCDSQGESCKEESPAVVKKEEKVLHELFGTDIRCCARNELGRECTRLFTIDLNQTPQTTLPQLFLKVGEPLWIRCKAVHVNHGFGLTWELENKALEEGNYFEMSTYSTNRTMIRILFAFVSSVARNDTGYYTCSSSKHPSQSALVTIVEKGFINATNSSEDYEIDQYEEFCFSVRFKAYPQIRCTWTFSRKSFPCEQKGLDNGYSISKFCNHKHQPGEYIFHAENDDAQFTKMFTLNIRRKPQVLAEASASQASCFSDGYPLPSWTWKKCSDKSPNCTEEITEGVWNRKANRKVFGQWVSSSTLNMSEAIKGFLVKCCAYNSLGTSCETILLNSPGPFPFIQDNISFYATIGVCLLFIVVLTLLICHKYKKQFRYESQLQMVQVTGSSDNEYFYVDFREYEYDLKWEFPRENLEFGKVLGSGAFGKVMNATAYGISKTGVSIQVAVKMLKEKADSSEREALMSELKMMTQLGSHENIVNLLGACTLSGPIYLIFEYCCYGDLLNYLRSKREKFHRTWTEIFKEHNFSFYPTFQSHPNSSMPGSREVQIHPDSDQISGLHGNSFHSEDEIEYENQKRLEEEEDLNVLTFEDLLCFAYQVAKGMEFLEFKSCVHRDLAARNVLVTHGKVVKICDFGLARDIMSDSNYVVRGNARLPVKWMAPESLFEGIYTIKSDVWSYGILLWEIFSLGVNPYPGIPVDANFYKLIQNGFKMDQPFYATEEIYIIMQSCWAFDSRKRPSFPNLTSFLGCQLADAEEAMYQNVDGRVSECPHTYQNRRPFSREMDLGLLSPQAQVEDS
To be noted: kinase FLT3; compound at 1 μM.

In experiment [6] the target is panel of more than 300 wild-type and mutant kinases (313 kinase panel) (Homo sapiens, UniProt P07947). To be noted: kinase YES; compound at 1 μM.
Experiment [7] addresses panel of more than 300 wild-type and mutant kinases (313 kinase panel) (Homo sapiens, UniProt Q9UPE1). To be noted: kinase MSSK1; 1 μM.
The target of experiment [8] is panel of more than 300 wild-type and mutant kinases (313 kinase panel) (Homo sapiens, UniProt P78362). To be noted: kinase SRPK2; 1 μM.
Experiment [9] has as its target panel of more than 300 wild-type and mutant kinases (313 kinase panel) (Homo sapiens, UniProt P22455, V550L). To be noted: kinase FGFR4(V550L); compound at 1 μM.

For `CO[C@H]1C[C@@H]2CC[C@@H](C)[C@@](O)(O2)C(=O)C(=O)N2CCCC[C@H]2C(=O)O[C@H]([C@H](C)C[C@@H]2CC[C@@H](OCCO)[C@H](OC)C2)CC(=O)[C@H](C)/C=C(\C)[C@@H](O)[C@@H](OC)C(=O)[C@H](C)C[C@H](C)/C=C/C=C/C=C/1C` [everolimus], the “%-inhibition of EPHA6” value in [1] (kinase EPHA6, compound at 1 μM) was 2.18%. Also, in experiment [2], the “%-inhibition of FLT1” value was -2.63%. The “%-inhibition of MET” value in experiment [3] is -4%. The “%-inhibition, ALK(F1174L)” value in [4] was -3.68%. Further, in experiment [5], the “%-inhibition of FLT3” value came out at 2.25%. Besides, the “%-inhibition of YES” value in [6] is listed as 0%. The “%-inhibition of MSSK1” value in [7] is reported as -7%. Further, the “%-inhibition of SRPK2” value in experiment [8] is -10%. Further, the “%-inhibition of FGFR4(V550L)” value in experiment [9] was -10%.

Take `Cc1ccc(C(=O)Nc2ccc(CN3CCN(C)CC3)c(C(F)(F)F)c2)cc1C#Cc1cnc2cccnn12` [ponatinib]: the “%-inhibition of EPHA6” value in experiment [1] (kinase EPHA6, compound at 1 μM) was found to be 103%. Besides, the “%-inhibition of FLT1” value in experiment [2] was 101%. In addition, the “%-inhibition of MET” value in experiment [3] amounted to 17%. In addition, in experiment [4], the “%-inhibition, ALK(F1174L)” value amounted to 5%. In experiment [5], the “%-inhibition of FLT3” value is 99%. The “%-inhibition of YES” value in [6] is listed as 101%. For the same molecule, the “%-inhibition of MSSK1” value in experiment [7] is 17%. For the same molecule, the “%-inhibition of SRPK2” value in [8] is on record as -3%. The “%-inhibition of FGFR4(V550L)” value in [9] turned out to be 20%.

On to `CNC(=O)c1cc(Oc2ccc(NC(=O)Nc3ccc(Cl)c(C(F)(F)F)c3)c(F)c2)ccn1` [regorafenib], for which, in [1] (kinase EPHA6, compound at 1 μM), the “%-inhibition of EPHA6” value is recorded as 103%. Besides, the “%-inhibition of FLT1” value in experiment [2] was determined as 102%. Further, in experiment [3], the “%-inhibition of MET” value is given as 2.12%. Besides, the “%-inhibition, ALK(F1174L)” value in experiment [4] is -7.49%. Also, the “%-inhibition of FLT3” value in experiment [5] is reported as 68%. Moreover, the “%-inhibition of YES” value in experiment [6] stood at 62%. The “%-inhibition of MSSK1” value in [7] came to 43%. The “%-inhibition of SRPK2” value in experiment [8] is given as 5%. Besides, the “%-inhibition of FGFR4(V550L)” value in experiment [9] is on record as 3.37%.

Regarding `CO[C@H]1C[C@@H]2CC[C@@H](C)[C@@](O)(O2)C(=O)C(=O)N2CCCC[C@H]2C(=O)O[C@H]([C@H](C)C[C@@H]2CC[C@@H](OC(=O)C(C)(CO)CO)[C@H](OC)C2)CC(=O)[C@H](C)/C=C(\C)[C@@H](O)[C@@H](OC)C(=O)[C@H](C)C[C@H](C)/C=C/C=C/C=C/1C` [temsirolimus], the “%-inhibition of EPHA6” value in [1] (kinase EPHA6, compound at 1 μM) turned out to be 0.437%. The “%-inhibition of FLT1” value in experiment [2] is recorded as -2%. Further, the “%-inhibition of MET” value in experiment [3] is on record as -4.57%. The “%-inhibition, ALK(F1174L)” value in experiment [4] was -6%. The “%-inhibition of FLT3” value in experiment [5] was 5%. Further, the “%-inhibition of YES” value in experiment [6] is reported as -7%. Moreover, the “%-inhibition of MSSK1” value in experiment [7] was -8%. Moreover, the “%-inhibition of SRPK2” value in experiment [8] is listed as -3.79%. Further, the “%-inhibition of FGFR4(V550L)” value in experiment [9] was -8.55%.

As to `CC(=O)Nc1cccc(-n2c(=O)n(C3CC3)c(=O)c3c(Nc4ccc(I)cc4F)n(C)c(=O)c(C)c32)c1` [trametinib], the “%-inhibition of EPHA6” value in experiment [1] (1 µM) is listed as -2.51%. Moreover, the “%-inhibition of FLT1” value in experiment [2] is -2.75%. The “%-inhibition of MET” value in experiment [3] is reported as -2.41%. For the same molecule, in experiment [4], the “%-inhibition, ALK(F1174L)” value is -7%. Moreover, the “%-inhibition of FLT3” value in [5] is on record as 20%. Also, the “%-inhibition of YES” value in experiment [6] is reported as -1.63%. Moreover, in experiment [7], the “%-inhibition of MSSK1” value is listed as -5%. Further, the “%-inhibition of SRPK2” value in [8] is on record as -0.868%. Besides, the “%-inhibition of FGFR4(V550L)” value in experiment [9] is recorded as -0.155%.

Regarding `CCCS(=O)(=O)Nc1ccc(F)c(C(=O)c2c[nH]c3ncc(-c4ccc(Cl)cc4)cc23)c1F` [vemurafenib], the “%-inhibition of EPHA6” value in experiment [1] (kinase EPHA6, compound at 1 μM) is recorded as 37%. Moreover, the “%-inhibition of FLT1” value in [2] is 25%. Further, the “%-inhibition of MET” value in experiment [3] turned out to be 3.67%. Also, in experiment [4], the “%-inhibition, ALK(F1174L)” value is on record as -1.36%. For the same molecule, in experiment [5], the “%-inhibition of FLT3” value is 10%. Moreover, in experiment [6], the “%-inhibition of YES” value is given as 74%. In experiment [7], the “%-inhibition of MSSK1” value was -6.65%. In addition, in experiment [8], the “%-inhibition of SRPK2” value is listed as -2.2%. In experiment [9], the “%-inhibition of FGFR4(V550L)” value came to 0.45%.

The values are drawn from article PMC3961306, “Comparison of the Cancer Gene Targeting and Biochemical Selectivities of All Targeted Kinase Inhibitors Approved for Clinical Use” (PLoS ONE, 2014).
